Tested on: Human peripheral blood mononuclear cells
Experiment: Human Concanavalin-A Proliferation Assay (Con HU Assay)
Assay type: cell-based
Settings: concanavalin-A stimulated human PBMC; for inhibition at 100 µM: concentration 100 μm (in parentheses in the cell); for IC50: tritiated thymidine
Description: Human peripheral blood mononuclear cells were cultured in RPMI 1640 medium supplemented with 10 μg/ml gentamicin, 50 μM 2-mercaptoethanol, 1X MEM non-essential amino acids (Sigma Chemical Co., St. Louis, Mo.), 100 U/ml sodium penicillin G, 100 μg/ml streptomycin sulfate, 2 mM L-glutamine, 1 mM sodium pyruvate (Life Technologies, Grand Island, N.Y.) and 10% fetal bovine serum (Hyclone, Logan, Utah) at 37° C. with 5% CO2.
The procedure in Current Protocols in Immunology, Volume 1, Published by the Greene Publishing Associates and John Wiley & Sons, Inc, Edited by Richard Coico, 1994, hereby incorporated by reference, was followed. Briefly, 50 ml of blood from human volunteers was collected in heparinized syringes and mixed. Blood was diluted 1:1 in Dulbecco's phosphate buffered saline (D-PBS) (Life Technologies, Grand Island, N.Y.) and mixed. PBS-blood mixture was overlaid into 50 ml centrifuge tubes containing 15 ml Histopaque 1077 (Sigma Chemical Co., St. Louis, Mo.) and centrifuged at 500 X G for 30 minutes at room temperature. Cells at the interface from each Histopaque tube were removed and mixed with 5 ml of D-PBS. Each cell suspension was diluted to 50 ml with D-PBS, mixed and centrifuged at 400 X G for 15 minutes at room temperature. After most of the supernatant was removed, cells were resuspended to 40 ml with D-PBS per tube (2 tubes per donor). Cells were centrifuged at 400 X G for 10 minutes at room temperature. Pellets were resuspended in 10 ml of supplemented RPMI 1640 and cell number determined with a Coulter counter. Cells were diluted to a concentration of 0.5×10^6 cells per mL.
The procedure in Current Protocols in Immunology, Volume 1, Published by the Greene Publishing Associates and John Wiley & Sons, Inc, Edited by Richard Coico, 1994, hereby incorporated by reference, was followed. Briefly, test compounds were added to appropriate wells on 96-well tissue culture plates (Corning Glass Works, Corning, N.Y.) in 20 µl of supplemented RPMI 1640. Human peripheral blood mononuclear cells were added to each well in 100 μl volumes (final cell concentration equal to 50,000 cells per well). After 15 minutes, 100 μl of 5 μg/ml concanavalin-A (Sigma Chemical Co., St. Louis, Mo.) in supplemented RPMI 1640 was added to a final concentration of 2.5 μg/ml. Plates were incubated for 3 days at 37° C. with 5% CO2. On day 3, plates were pulsed with 0.5 μCi/well tritiated thymidine (New England Nuclear, Boston, Mass.). After 6 hours, plates were harvested on a Tomatec 96-well havester (Orange, Conn.). Glass filter mats were counted on a Matrix 9600 direct beta counter (Packard, Meriden, Conn.).

[1] = Homo sapiens, PBMC, 72 h, concentration 10 μm (in parentheses in the cell), 3 days, read-out: % Inhibition of proliferation (at concentrations of 1,10, or 100 μm)
[2] = Homo sapiens, PBMC, 72 h, 3 days, read-out: % Inhibition of proliferation (at concentrations of 1,10, or 100 μm)
[3] = concentration 1 μm (in parentheses in the cell), 3 days
[4] = concentration 10 μm (in parentheses in the cell), 3 days

Q: Which inhibition at 10 µM [1] does the source give for N#Cc1cccc(/C=C\c2ccc(-n3nc(C(F)(F)F)cc3C(F)(F)F)cc2)c1 [Example 139, (Z)-3-[2-[4-[3,5-bis(trifluoromethyl)-1H-pyrazol-1-yl]phenyl]ethenyl]benzonitrile] here?
A: Its inhibition at 10 µM is 5%.

Q: Which inhibition at 100 µM [2] does the source give for O=C(Nc1ccc(-n2nc(C(F)(F)F)cc2C(F)(F)F)cc1)c1cccc(Br)c1 [Example 144, N-[4-[3,5-bis(trifluoromethyl)-1H-pyrazol-1-yl]phenyl]-3-bromobenzamide] here?
A: Its inhibition at 100 µM is 100%.

Q: And the IC50 (Homo sapiens, PBMC)?
A: The IC50 was 240 nM.

Q: For CC(=O)Nc1ccc(-n2nc(C(F)(F)F)cc2C(F)(F)F)cc1 [Example 156], which “% Inhibition of proliferation (at concentrations of 1,10, or 100 μm)” value (shortened to “% Inhibition of proliferation”) [3] is on record?
A: Its value is 16(1) %.

Q: For O=C(CCCNC(=O)OCc1ccccc1)Nc1ccc(-n2nc(C(F)(F)F)cc2C(F)(F)F)cc1 [Example 158], which “% Inhibition of proliferation” value [3] is on record?
A: Its value is 30(1) %.

Q: Which results are given for O=C(Nc1ccc(-n2nc(C(F)(F)F)cc2C(F)(F)F)cc1)c1sccc1Br [Example 161, N-[4-[3,5-bis(trifluoromethyl)-1H-pyrazol-1-yl]phenyl]-3-bromo-2-thiophenecarboxamide]?
A: inhibition at 100 µM [2]: 99%; IC50 (Homo sapiens, PBMC): 231 nM

Q: Which “% Inhibition of proliferation” value [3] does the source give for O=C(Nc1ccc(-n2nc(C(F)(F)F)cc2C(F)(F)F)cc1)c1cnccn1 [Example 172, N-[4-[3,5-Bis(trifluoromethyl)-1H-pyrazol-1-yl]phenyl]pyazinecarboxamide] here?
A: The value was 48(1) %.

Q: CC(C)(C)OC(=O)NCCCC(=O)Nc1ccc(-n2nc(C(F)(F)F)cc2C(F)(F)F)cc1 [Example 173, 1,1-Dimethylethyl [[4-[4-[3,5-bis(trifluoromethyl)-1H-pyrazol-1-yl]phenyl]amino]-4-oxobutyl]carbamate] was tested. Which “% Inhibition of proliferation” value [3] did it give?
A: The value was 28(1) %.

Q: How did the inhibition at 100 µM [2] turn out when CCCC(=O)Nc1ccc(-n2nc(C(F)(F)F)cc2C(F)(F)F)cc1 [Example 175, N-[4-[3,5-Bis(trifluoromethyl)-1H-pyrazol-1-yl]phenyl]butanamide] was run?
A: Its inhibition at 100 µM is 100%.

Q: And the IC50 (Homo sapiens, PBMC)?
A: The IC50 was 562 nM.

Q: How did the IC50 turn out when COc1cc(SC)ccc1C(=O)Nc1ccc(-n2nc(C(F)(F)F)cc2C(F)(F)F)cc1 [Example 179, N-[4-[3,5-bis(trifluoromethyl)-1H-pyrazol-1-yl]phenyl]-2-methoxy-4-(methythio)benzamide] was run?
A: Its IC50 is 8870 nM.

Q: And the “% Inhibition of proliferation” value [4]?
A: The value was 47(10) %.

Q: How did the inhibition at 1 µM (Homo sapiens, PBMC, 72 h, concentration 1 μm (in parentheses in the cell), 3 days, read-out: % Inhibition of proliferation (at concentrations of 1,10, or 100 μm)) turn out when O=C(Nc1ccccc1Br)c1ccc(-n2nc(C(F)(F)F)cc2C(F)(F)F)cc1 [Example 192, 4-[3,5-Bis(trifluoromethyl)-1H-pyrazol-1-yl]-N-(2-bromophenyl)benzamide] was run?
A: Its inhibition at 1 µM is 10%.

Q: What does the source list for O=C(Nc1ccc(-n2nc(C(F)(F)F)cc2C(F)(F)F)cc1)c1cccc([N+](=O)[O-])c1Br [Example 205, N-[4-[3,5-bis(trifluoromethyl)-1H-pyrazol-1-yl]phenyl]-2-bromo-3-nitrobenzamide]?
A: inhibition at 10 µM [1]: 100%; IC50 (Homo sapiens, PBMC): 196 nM

Q: What does the source list for O=C(Nc1ccc(-n2nc(C(F)(F)F)cc2C(F)(F)F)cc1)c1ccc(Br)cc1Cl [Example 217, N-[4-[3,5-bis(trifluoromethyl)-1H-pyrazol-1-yl]phenyl]-4-bromo-2-chlorobenzamide]?
A: inhibition at 10 µM [1]: 100%; IC50 (Homo sapiens, PBMC): 218 nM

Q: Which IC50 does the source give for O=C(Nc1ccc(-n2nc(C(F)(F)F)cc2C(F)(F)F)cc1)c1ccc(O)c(Br)c1 [Example 222] here?
A: Its IC50 is 760 nM.

Q: What about the “% Inhibition of proliferation” value [4] of the same compound?
A: Its value is 100(10) %.

Q: Which IC50 does the source give for O=C(Nc1ccc(-n2nc(C(F)(F)F)cc2C(F)(F)F)cc1)c1cc([N+](=O)[O-])c(Cl)c([N+](=O)[O-])c1Cl [Example 233, N-4-[3,5-bis(trifluoromethyl)-1H-pyrazol-1-yl]phenyl-2,4-dichloro-3,5-dinitrobenzamide] here?
A: The IC50 was 340 nM.

Q: What about the “% Inhibition of proliferation” value [4] of the same compound?
A: The value was 100(10) %.

Q: For O=C(Nc1ccc(-n2nc(C(F)(F)F)cc2C(F)(F)F)cc1)c1c(F)c(F)c(Br)c(F)c1F [Example 236, N-[4-[3,5-bis(trifluoromethyl)-1H-pyrazol-1-yl]phenyl]-4-bromo-2,3,5,6-tetrafluorobenzamide], which inhibition at 10 µM [1] is on record?
A: Its inhibition at 10 µM is 100%.

Q: What about the IC50 (Homo sapiens, PBMC) of the same compound?
A: The IC50 was 180 nM.

Reference: patent US20010044445A1, “AZOLE INHIBITORS OF CYTOKINE PRODUCTION” (priority 1999, published 2001)
